# From patent US11319298B2 (Merck Sharp & Dohme Corp., priority 2016, dated 2022)
# Target: T1, human M4 muscarinic acetylcholine receptor (Homo sapiens, UniProt P08173)
# T1 construct: expressed in transfected cells; host or cells: CHO-K1
# T1 sequence (P08173 1-479): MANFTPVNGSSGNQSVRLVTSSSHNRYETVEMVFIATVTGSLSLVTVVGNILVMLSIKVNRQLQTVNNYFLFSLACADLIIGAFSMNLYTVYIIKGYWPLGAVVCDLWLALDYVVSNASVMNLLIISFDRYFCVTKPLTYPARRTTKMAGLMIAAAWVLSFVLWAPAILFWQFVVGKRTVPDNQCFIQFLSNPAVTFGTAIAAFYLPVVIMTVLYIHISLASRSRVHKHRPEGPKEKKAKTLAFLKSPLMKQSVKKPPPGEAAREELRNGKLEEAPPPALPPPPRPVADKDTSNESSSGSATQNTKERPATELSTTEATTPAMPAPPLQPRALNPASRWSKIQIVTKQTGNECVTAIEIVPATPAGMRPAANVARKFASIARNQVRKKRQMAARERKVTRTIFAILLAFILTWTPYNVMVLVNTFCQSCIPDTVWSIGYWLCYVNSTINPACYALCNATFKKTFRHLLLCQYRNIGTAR
# Experiment: human FLIPR-based M4 PAM assay, CHO-K1 cells stably transfected with human M4 receptor and chimeric G-protein Gαqi5
# Type: cell-based
# Conditions: inflection point (IP) of dose response curve; acetylcholine added at 20% of maximum response; CHO-K1 human M4/Gαqi5, FLIPR Tetra
# Outline: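 CHO-K1 cells were loaded with calcium dye at 37 °C for ~1 h. Fluorescence (ex 470–495/em 515–575 nm) was read for 4 min after test compound at increasing concentrations, then 3.5 min after acetylcholine at an EC20; sometimes a third addition at EC70 followed. The value is the inflection point of a 4-parameter logistic fit.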
row,Structure (SMILES),EC50
1,"Cc1cc(C(=O)NCc2cnsc2)nnc1N1CCC(Oc2cccc(C#N)c2)CC1 [Example 192, 6-[4-(3-cyanophenoxy)piperidin-1-yl]-N-(isothiazol-4-ylmethyl)-5-methypyridazine-3-carboxamide]",22 nM
2,"COc1ccc(OC2CCN(c3nc(C(=O)NCc4ccncc4)nc(Cl)c3C)CC2)cn1 [Example 207, 4-chloro-6-(4-((6-methoxypyridin-3-yl)oxy)piperidin-1-yl)-5-methyl-N-(pyridin-4-ylmethyl)pyrimidine-2-carboxamide]",224 nM
3,"COc1ccc(OC2CCN(c3nnc(C(=O)NCc4ccccc4OC)cc3C)CC2)cn1 [Example 158, N-(2-methoxybenzyl)-6-{4-[(6-methoxypyridin-3-yl)oxy]piperidin-1-yl}-5-methylpyridazine-3-carboxamide]",282 nM
4,"COc1ccc(OC2CCN(c3nc(CO)nc(Cl)c3C)CC2)cn1 [Example 68, (4-chloro-6-(4-((6-methoxypyridin-3-yl)oxy)piperidin-1-yl)-5-methylpyrimidin-2-yl)methanol]",126 nM
5,"COc1ccc(OC2CCN(c3nnc(C(=O)NCc4ccnnc4)cc3C)CC2)cn1 [Example 139, 6-{4-[(6-methoxypyridin-3-yl)oxy]piperidin-1-yl}-5-methyl-N-(pyridazin-4-ylmethyl)pyridazine-3-carboxamide]",177 nM
6,"Cc1cc(C(=O)N[C@H]2CCc3cccnc3C2)nnc1N1CCC(Oc2cccc(C#N)c2)CC1 [Example 164A, (S)-6-[4-(3-cyanophenoxy)piperidin-1-yl]-5-methyl-N-(5,6,7,8-tetrahydroquinolin-7-yl)pyridazine-3-carboxamide]",434 nM
7,"COc1ccc(O[C@@H]2CCN(c3ncnc(Cl)c3C)C[C@@H]2F)cc1 (relative stereo) [Example 13, 4-chloro-6-((cis)-3-fluoro-4-(4-methoxyphenoxy)piperidin-1-yl)-5-methylpyrimidine]",110 nM
8,"Cc1cc(C(=O)NCc2ccncc2)nnc1N1CCC(Oc2ccc3c(c2)OCCO3)CC1 [Example 108, 6-[4-(2,3-dihydro-1,4-benzodioxin-6-yloxy)piperidin-1-yl]-5-methyl-N-(pyridin-4-ylmethyl)pyridazine-3-carboxamide]",18 nM
9,"COc1ccc(OC2CCN(c3nnc(C(=O)NC4CCc5ccncc5C4)cc3C)CC2)cn1 (centres unmarked) [Example 159, 6-{4-[(6-methoxypyridin-3-yl)oxy]piperidin-1-yl}-5-methyl-N-(5,6,7,8-tetrahydroisoquinolin-7-yl)pyridazine-3-carboxamide]",293 nM
10,"Cc1c(Cl)nc(CO)nc1N1CCC(Oc2ccc3ncnn3c2)CC1 [Example 4, (4-(4-([1,2,4]triazolo[1,5-a]pyridin-6-yloxy)piperidin-1-yl)-6-chloro-5-methylpyrimidin-2-yl)methanol]",533 nM
11,"Cc1nc(C)c(C)c(N2CCC(Oc3cccc(C#N)c3)CC2)n1 [Example 103, 3-((1-(2,5,6-Trimethylpyrimidin-4-yl)piperidin-4-yl)oxy)benzonitrile]",61 nM
12,"COc1ncc(OC2CCN(c3nc(CO)nc(Cl)c3C)CC2)cc1Cl [Example 65, (4-chloro-6-(4-((5-chloro-6-methoxypyridin-3-yl)oxy)piperidin-1-yl)-5-methylpyrimidin-2-yl)methanol]",100 nM
13,"COc1ccc(OC2CCN(c3nnc(C(=O)NCc4ccncc4)cc3C)CC2)cn1 [Example 116, 6-{4-[(6-methoxypyridin-3-yl)oxy]piperidin-1-yl}-5-methyl-N-(pyridin-4-ylmethyl)pyridazine-3-carboxamide]",79 nM
14,"COc1ncc(OC2CCN(c3nc(CO)nc(Cl)c3C)CC2)cc1F [Example 54, (4-chloro-6-(4-((5-fluoro-6-methoxypyridin-3-yl)oxy)piperidin-1-yl)-5-methylpyrimidin-2-yl)methanol]",55 nM
15,"Cc1ncc(C)c(N2CCC(Oc3ccc(OCCO)nc3)CC2)n1 [Example 64, 2-((5-((1-(2,5-dimethylpyrimidin-4-yl)piperidin-4-yl)oxy)pyridin-2-yl)oxy)ethan-1-ol]",99 nM
16,"COc1ccc(OC2CCN(c3nc(C(=O)NNC(C)C)nc(Cl)c3C)CC2)cn1 [Example 209, 4-chloro-N′-isopropyl-6-(4-((6-methoxypyridin-3-yl)oxy)piperidin-1-yl)-5-methylpyrimidine-2-carbohydrazide]",533 nM
17,"Cc1c(Cl)nc(CO)nc1N1CCC(Oc2ccc3c(c2)C(=O)NC3)CC1 [Example 98, 6-((1-(6-chloro-2-(hydroxymethyl)-5-methylpyrimidin-4-yl)piperidin-4-yl)oxy)isoindolin-1-one]",184 nM
18,"Cc1c(Cl)nc(CO)nc1N1CCC(Oc2ccc3c(c2)C(=O)CCC3)CC1 [Example 38, 7-((1-(6-chloro-2-(hydroxymethyl)-5-methylpyrimidin-4-yl)piperidin-4-yl)oxy)-3,4-dihydronaphthalen-1(2H)-one]",252 nM
19,"Cc1c(Cl)nc(CO)nc1N1CCC(Oc2ccc3ncn(C)c(=O)c3c2)CC1 [Example 6, 6-((1-(6-chloro-2-(hydroxymethyl)-5-methylpyrimidin-4-yl)piperidin-4-yl)oxy)-3-methylquinazolin-4(3H)-one]",976 nM
20,"COc1ccc(OC2CCN(c3nc(SC)ncc3C#N)CC2)cc1 [Example 95, 4-(4-(4-methoxyphenoxy)piperidin-1-yl)-2-(methylthio)pyrimidine-5-carbonitrile]",803 nM
21,"Cc1cc(C(=O)NC2CCc3ccccc3C2)nnc1N1CCC(Oc2cccc(C#N)c2)CC1 (centres unmarked) [Example 201, 6-[4-(3-cyanophenoxy)piperidin-1-yl]-5-methyl-N-(1,2,3,4-tetrahydronaphthalen-2-yl)pyridazine-3-carboxamide]",272 nM
22,"COc1ccc(OC2CCN(c3nc(C(=O)N[C@@H]4CCCc5ccccc54)nc(Cl)c3C)CC2)cn1 [Example 223, (R)-4-chloro-6-(4-((6-methoxypyridin-3-yl)oxy)piperidin-1-yl)-5-methyl-N-(1,2,3,4-tetrahydronaphthalen-1-yl)pyrimidine-2-carboxamide]",3410 nM
23,"COc1ccc(OC2CCN(c3nc(C(=O)NC4CCc5ncccc5C4)nc(Cl)c3C)CC2)cn1 (centres unmarked) [Example 218, 4-chloro-6-(4-((6-methoxypyridin-3-yl)oxy)piperidin-1-yl)-5-methyl-N-(5,6,7,8-tetrahydroquinolin-6-yl)pyrimidine-2-carboxamide]",1050 nM
24,"Cc1cc(C(=O)NCc2ccncc2)nnc1N1CCC(Oc2cnn(CC3CC3)c2)CC1 [Example 39, 6-(4-((1-(cyclopropylmethyl)-1H-pyrazol-4-yl)oxy)piperidin-1-yl)-5-methyl-N-(pyridin-4-ylmethyl)pyridazine-3-carboxamide]",278 nM
25,"COc1ccc(OC2CCN(c3nnc(C(=O)NCc4ccncc4)cc3C)CC2)cc1 [Example 101, 6-(4-(4-Methoxyphenoxy)piperidin-1-yl)-5-methyl-N-(pyridin-4-ylmethyl)pyridazine-3-carboxamide]",129 nM
26,"COc1ccc(OC2CCN(c3nc(C(=O)NC4CCc5ccncc5C4)nc(Cl)c3C)CC2)cn1 (centres unmarked) [Example 216, 4-chloro-6-(4-((6-methoxypyridin-3-yl)oxy)piperidin-1-yl)-5-methyl-N-(5,6,7,8-tetrahydroisoquinolin-7-yl)pyrimidine-2-carboxamide]",997 nM
